Test results reported in PMC3904662 (Nature, 2013).
Read-outs that look alike come from different tables or passages of the source.

Key:
[1] = target: T1, wild-type LeuT (Aquifex aeolicus, UniProt O67854)
[2] = target: hSERT (human serotonin transporter); settings: cited from earlier work
[3] = target: Δ13 LeuBAT (Aquifex aeolicus, UniProt O67854, A261V/E290S/G24D/G408T/I106S/I262L/I359G/N21Y/P362G/S256G/T254S/T409G/Y265F); experiment: biochemical
[4] = target: T1, wild-type LeuT; experiment: biochemical; settings: saturation binding of 3H-mazindol

SMILES	suppression of sertraline binding to wild-type LeuT ([1]; 3 µM 3[H]-sertraline with 5 mM Ala)	Kd [2] [nM]	Kd [3] [nM]	Kd [4] [nM]	Kd ([1]; saturation binding of 3H-labeled drug, n=3, ±s.e.m)
C[C@H](N)C(=O)O [alanine]	could not suppress the binding of sertraline				
OC1(c2ccc(Cl)cc2)c2ccccc2C2=NCCN21 (stereo not drawn) [mazindol]		103 ± 4.7	112 ± 18	22300 ± 5400	
Fc1ccc([C@@H]2CCNC[C@H]2COc2ccc3c(c2)OCO3)cc1 [paroxetine]			431 ± 24		could not be fit to an isotherm because of low affinity
